US10835537B2, “Combination therapies for treatment of cancer” (Sumitomo Dainippon Pharma Oncology, Inc., priority 2015, dated 2020)

What was measured:
MV 4-11 cells = test: Cell viability, Cell titer-glo assay; type: cell-based; conditions: for EC50: Homo sapiens, MV4-11, MV 4-11 cells, wash
Experimental: MV 4-11 cells were dosed first with alvocidib (80 nM) or DMSO for 24 hours followed by a wash step. Following the wash step, the cells were dosed with azacitidine (30 μM to 0.001 μM) for an additional 72 hours, Measurement of cell viability was taken at 96 hours from the initial dose (72 hours after the wash step) and normalized to data collected for cells dosed with alvocidib only. Cell viability was then assessed in a Cell titer-glo assay, according to manufacturer protocol. Cell viability was then plotted against concentration on a logarithmic scale (FIG. 2).
FIGS. 5A and 5B present data from combination treatment of Alvocidib and decitabine in MV4-11 cells. MV4-11 cells were first treated for 96 hours with alvocidib+decitabine according to the general procedures of Example 2 at the concentrations indicated in FIG. 5A. […] Here, a change of nearly 10-fold in the IC50 (μM) of decitabine with the addition of alvocidib (100 nM) was observed when alvocidib was administered prior to decitabine.

MCL-1 = MCL-1 expression by western blotting in MV4-11 cells; type: cell-based
Experimental: An AML cell line, MV-4-11, expresses MCL-1. MCL-1 is a key anti-apoptotic protein in MV-4-11 cells. Alvocidib, a CDK9 inhibitor, lowers the expression of MCL-1, which is already well documented in the literature. Alvocidib down-regulates MCL-1 in a dose dependent manner (FIG. 1A). The dose dependence is observed by monitoring the relative expression of MCL-1 compared to β-actin when cells are dosed with alvocidib at concentrations of 0-8 μM. MV4-11 cells were treated with Alvocidib for 16 hrs in vitro, Following treatment, cells were harvested and prepared using standard western blotting technique for immuno-detection of MCL-1 and β-actin expression.
In addition, alvocidib also down-regulates MCL-1 in a time-dependent manner (FIG. 1B). The time dependence is observed by monitoring the relative expression of MCL-1 compared top-actin over time. The relative expression of MCL-1 was measured at 0.5-48 hour time points after dosing with 80 nM of alvocidib.
MV4-11 cells were treated with 80 nM Alvocidib in vitro for the times indicated. Following treatment, cells were harvested and prepared using standard western blotting technique for immunodetection of MCL-1 and β-actin expression.

With `Nc1ncn([C@H]2C[C@H](O)[C@@H](CO)O2)c(=O)n1` [decitabine] the “Change in IC50 of decitabine with the addition of alvocidib” value (MV 4-11 cells; MV4-11 cells, alvocidib 100 nM 24 hours pre-treatment, then decitabine 72 hours) was roughly 10 fold.
Compound `Nc1ncn([C@@H]2O[C@H](CO)[C@@H](O)[C@H]2O)c(=O)n1` [azacitidine] has an EC50 (MV 4-11 cells; DMSO 24 hours, then azacitidine only 72 hours) of 1780 nM and an EC50 (MV 4-11 cells; alvocidib 80 nM 24 hours, then azacitidine 72 hours, normalized to alvocidib only) of 641 nM.
In the case of `CN1CC[C@H](c2c(O)cc(O)c3c(=O)cc(-c4ccccc4Cl)oc23)[C@H](O)C1` [Alvocidib], the “MCL-1 expression compared to β-actin” value (MCL-1; 80 nM, 1 hour post-treatment) is reported as “reduced MCL-1 expression”, the “MCL-1 expression compared to β-actin” value (MCL-1; 80 nM, 16 hrs) is reported as “nearly completely blocked” and the “MCL-1 expression compared to β-actin” value (MCL-1; 80 nM, up to 48 hours following treatment) is reported as “inhibition of expression was maintained”. For the same compound, the “MCL-1 expression compared to β-actin” value (MCL-1; 0.1 μM, 16 hrs) was “reduced MCL-1 expression” and the “MCL-1 expression compared to β-actin” value (MCL-1; 1 μM, 16 hrs) was “completely blocked expression”.
